Read-outs that look alike come from different tables or passages of the source.
Key:
P. berghei = assay: Hepatic-stage antiplasmodial evaluation (PbGFP sporozoites in primary simian hepatocytes, high content imaging); format: cell-based; conditions: mean ± SD of three independent experiments
Description: P. berghei sporozoites constitutively expressing green fluorescent protein (PbGFP, ANKA strain) were obtained by the dissection of salivary glands from infected Anopheles stephensi mosquitoes bred and infected in the insectary facilities of UMR-S 1135 (CIMI, Paris, France). Infected salivary glands were removed by hand dissection, crushed in a potter, and filtered through a 40 μm filter for sporozoite isolation (Cell Strainer, BD BioSciences, San Jose, CA, USA). The sporozoites were counted using a disposable plastic microscope slide (KOVA).
(§1) Primary simian hepatocytes were isolated from liver segments collected from healthy Macaca fascicularis from CEA, Fontenay aux Roses, France. All hepatocytes were obtained using collagenase perfusion, as previously described, and were immediately cryopreserved. One day before infection, the cryopreserved hepatocytes were thawed at 37 °C and were seeded into collagen-coated (5 µg/cm^2 rat tail collagen I, Invitrogen, Carlsbad, CA, USA) 96-well plate, at a density of 80,000 cells per well. They were cultured at 37 °C in 5% CO2 in William’s E medium (Gibco, Life Technologies, Saint Aubin, France) supplemented with 10% of Fetal Bovine Serum FCIII, 5 × 10^–5 M hydrocortisone hemisuccinate (Serb Laboratories, Paris, France), 5 μg per ml bovine insulin (Sigma Aldrich, St. Louis, MO, USA), 2 mM L-glutamine, and 0.02 U per ml-0.02 μg per ml penicillin-streptomycin (Life Technologies) until infection with sporozoites.
(§2) Sporozoites of P. berghei were re-suspended in the above complete medium used for the hepatocytes culture. Simian hepatocytes were inoculated in 50 μL of complete media with 20,000 P. berghei-sporozoites/well in 96-well plates. The infected culture plates were centrifuged for 10 min at 900× g to allow fast parasite sedimentation onto the target cells and were further incubated with the serial dilution of drugs that were prepared in advance. After 3 h of incubation, cultures were washed and further incubated in a fresh medium containing the appropriate drug concentration, which were changed every 24 h during the study period. Cultured hepatocytes were fixed using 4% paraformaldehyde (PFA) for 15 min at room temperature. Host cell and parasite nuclei were labelled with 4′,6-diamidino-2-phenylindole (DAPI). Upon fixation and immunostaining, cell culture plates were analyzed in order to determine the number and size of the parasites using a Cell Insight High Content Screening platform equipped with the Studio HCS software (Thermo Fisher Scientific, Waltham, MA, USA). The parasite size reduction was calculated on the average object area using the total surface area of each selected object (μm^2). To assess the cell toxicity of drugs for hepatic cultures, fixed plates were further scanned for the DAPI signal representing host nuclei. The analysis was based on counting of total cell nuclei. GraphPad Prism 7 statistical software (GraphPad. Software, San Diego, CA, USA) was used for data analysis and graphing. All values were expressed as means and standard deviations (SD).

[1] = Cytotoxicity on primary simian hepatocytes (DAPI count of host cell nuclei); format: cell-based, Macaca fascicularis; conditions: Macaca fascicularis, count of total cell nuclei, mean ± SD of three independent experiments
Description: as §1, §2

P. falciparum K1 [2] = test system: P. falciparum K1; set-up: method as in PMID 25791675; conditions: asexual blood stages, K1 strain; cited from earlier work
HepG2 [3] = test system: HepG2; set-up: method as in PMID 25791675; conditions: cited from earlier work
P. falciparum K1 [4] = assay: Blood-stage antiplasmodial evaluation (SYBR Green I fluorescence, 72 h); format: cell-based, Plasmodium falciparum; conditions: asexual blood stages, drug-resistant K1 strain, 72 h incubation, mean ± SD of three independent experiments; for EC50: read-out: P. falciparum K1 EC50
Description: A K1 culture-adapted P. falciparum strain resistant to chloroquine, pyrimethamine, and proguanil was used in an in vitro culture. It was maintained in a continuous culture, as described previously by Trager and Jensen. Cultures were maintained in fresh A+ human erythrocytes at 2.5% hematocrit in a complete medium (RPMI 1640 with 25 mM HEPES, 25 mM NaHCO3, and 10% of A+ human serum) at 37 °C under a reduced O2 atmosphere (gas mixture: 10% O2, 5% CO2, and 85% N2). Parasitemia was maintained daily between 1 and 3%. The P. falciparum drug susceptibility test was carried out by comparing quantities of DNA in treated and control cultures of parasite in human erythrocytes, according to a SYBR Green I fluorescence-based method using a 96-well fluorescence plate reader. Compounds, previously dissolved in DMSO (final concentration less than 0.5% v/v), were incubated in a total assay volume of 200 μL (RPMI, 2% hematocrit and 0.4% parasitemia) for 72 h in a humidified atmosphere (10% O2 and 5% CO2) at 37 °C, in 96-well flat bottom plates. Duplicate assays were performed for each sample. After incubation, plates were frozen at […] for 24 h. Then, the frozen plates were thawed for 1 h at 37 °C. A total of 15 μL of each sample was transferred to 96-well flat-bottom non-sterile black plates (Greiner Bio-One, Kremsmünster, Austria) already containing 15 μL of the SYBR Green I lysis buffer (2X SYBR Green I, 20 mM Tris base pH 7.5, 20 mM EDTA, 0.008% w/v saponin, 0.08% w/v Triton X-100). Negative control treated by solvents (DMSO or H2O) and positive controls (chloroquine) were added to each set of experiments. Plates were incubated for 15 min at 37 °C and then read on a TECAN Infinite F-200 spectrophotometer with excitation and emission wavelengths at 485 and 535 nm, respectively. The concentrations of compounds required to induce a 50% decrease in parasite growth (EC50 K1) were calculated from three independent experiments.

[5] = Cytotoxic evaluation on HepG2 cell line (MTT, 72 h); format: cell-based, human; conditions: HepG2 cells (hepatocarcinoma cell line, ATCC HB-8065); human hepatoma cell line HepG2, MTT, 72 h, mean ± SD of three independent experiments
Description: (§3) The HepG2 cell line (hepatocarcinoma cell line purchased from ATCC, ref HB-8065) was maintained at 37 °C, 5% CO2, with 90% humidity in MEM supplemented with 10% fetal bovine serum, 1% L-glutamine (200 mM), penicillin (100 U/mL), and streptomycin (100 μg/mL) (complete MEM medium). The evaluation of the cytotoxicity of the tested molecules was performed according to the method of Mosmann, with slight modifications. Briefly, 5.103 cells in 100 μL of the complete medium were inoculated into each well of a 96-well plate and incubated at 37 °C in a humidified 5% CO2. After 24 h incubation, 100 μL of medium with various product concentrations dissolved in DMSO (final concentration less than 0.5% v/v) was added and the plates were incubated for 72 h at 37 °C. Triplicate assays were performed for each sample. Each plate well was then microscope-examined for detecting possible precipitate formation before the medium was aspirated from the wells. A total of 100 μL of MTT (3-(4,5-dimethyl-2-thiazolyl)-2,5-diphenyl-2H-tetrazolium bromide) solution (0.5 mg/mL in medium without FCS) was then added to each well. Cells were incubated for 2 h at 37 °C. After this time, the MTT solution was removed and DMSO (100 μL) was added to dissolve the resulting blue formazan crystals. Plates were shaken vigorously (700 rpm) for 10 min. The absorbance was measured at 570 nm, with 630 nm as a reference wavelength using a TECAN Infinite F-200 Microplate Reader. DMSO was used as a blank and doxorubicin (purchased from Sigma Aldrich, St. Louis, MO, USA) was used as a positive control. Cell viability was calculated as a percentage of control (cells incubated without compound). The 50% cytotoxic concentration (CC50) was determined from the dose–response curve by using the TableCurve software 2D v.5.0. CC50 values represent the mean value calculated from three independent experiments.

HepG2 [6] = assay: as above; format: cell-based, human; conditions: toxicity on HepG2 versus EC50 against the erythrocytic stage of P. falciparum
Description: as §3

[7] = test system: Primary Simian Hepatocytes; assay: Cytotoxicity on primary simian hepatocytes (DAPI count of host cell nuclei); format: cell-based, Macaca fascicularis; conditions: count of total cell nuclei, mean ± SD of three independent experiments
Description: as §1, §2

[8] = Plasmodium falciparum, K1, 72 h

SMILES	EC50 (P. berghei; Plasmodium berghei, Hepatocyte) [µM]	CC50 [1] [µM]	EC50 (P. falciparum K1 [2]) [µM]	CC50 (HepG2 [3]) [µM]	P. falciparum K1 EC50 (P. falciparum K1 [4])	EC50 (P. berghei) [µM]	CC50 at 72 h [5] [µM]	selective index (HepG2 [6])	EC50 (P. falciparum K1 [4]; [8]) [µM]	EC50 (P. falciparum K1 [4]) [µM]	P. berghei EC50 (P. berghei)	Primary Simian Hepatocytes CC50 [7]
Cc1ccc(-c2cc3nc(NC(C)(C)C)[nH]c(=O)c3s2)cc1 [Compound 1, Gamhepathiopine, reference compound]	24.3 ± 1.6	> 200	0.2 ± 0.02	25.6 ± 3.1								
Cc1ccc(-c2cc3nc(NC(C)(C)C)nc(Cl)c3s2)cc1 [Compound 5, N-(Tert-butyl)-4-chloro-6-(p-tolyl)thieno[3,2-d]pyrimidin-2-amine]	~15	> 100			submicromolar range	16.5 ± 8	16.4 ± 5.4	54.7				
Cc1ccc(-c2cc3nc(NC(C)(C)C)nc(I)c3s2)cc1 [Compound 6, N-(Tert-butyl)-4-iodo-6-(p-tolyl)thieno[3,2-d]pyrimidin-2-amine]	26.7 ± 5.6	> 100			submicromolar range		29 ± 5.5					
Cc1ccc(-c2cc3nc(NC(C)(C)C)nc(N)c3s2)cc1 [Compound 10a, N^2-(Tert-butyl)-6-(p-tolyl)thieno[3,2-d]pyrimidine-2,4-diamine]	70.7 ± 9.7	> 50			micromolar range		12.1 ± 4.1		< 2	1.4 ± 0.6	not active	
CNc1nc(NC(C)(C)C)nc2cc(-c3ccc(C)cc3)sc12 [Compound 10c, N^2-(tert-butyl)-N^4-methyl-6-(p-tolyl)thieno[3,2-d]pyrimidine-2,4-diamine]	~5	31.5 ± 6.8			micromolar range	4.6 ± 5.7	3.7 ± 0.6		1 ± 0.4		most active	
CCCNc1nc(NC(C)(C)C)nc2cc(-c3ccc(C)cc3)sc12 [Compound 10d, N^2-(tert-butyl)-N^4-propyl-6-(p-tolyl)thieno[3,2-d]pyrimidine-2,4-diamine]	~5	22 ± 2.8			micromolar range	7.1 ± 1.4	3.7 ± 0.3		1.1 ± 0.2			
Cc1ccc(-c2cc3nc(NC(C)(C)C)nc(NCCCCO)c3s2)cc1 [Compound 10f, 4-((2-(tert-butylamino)-6-(p-tolyl)thieno[3,2-d]pyrimidin-4-yl)amino)butan-1-ol]	~15	17.7 ± 1.9			micromolar range	14.1 ± 1.9	2.9 ± 1.1		0.7 ± 0.1			
COCCNc1nc(NC(C)(C)C)nc2cc(-c3ccc(C)cc3)sc12 [Compound 10g, N^2-(tert-butyl)-N^4-(2-methoxyethyl)-6-(p-tolyl)thieno[3,2-d]pyrimidine-2,4-diamine]	~5	7.8 ± 2.3			micromolar range	6.3 ± 0.2	3.7 ± 0.9		0.8 ± 0.2			cytotoxic
C[C@H]1c2cccc(O)c2C(=O)C2=C(O)[C@]3(O)C(=O)C(C(N)=O)=C(O)[C@@H](N(C)C)[C@@H]3[C@@H](O)[C@@H]21 [Doxycycline]			5									

Reference: paper PMC9323797, “4-Substituted Thieno[3,2-d]pyrimidines as Dual-Stage Antiplasmodial Derivatives” (Pharmaceuticals, 2022)
